{"source": "patent US11286278B2", "about": "“DPEP-1 binding agents and methods of use” (Arch Biopartners, Inc., priority 2018, dated 2022)", "key": {"[1]": {"tested_on": "activated (TNFα and IL1β treated) HLMVEC", "test": "Cancer cell binding to activated human lung microvascular endothelial cells", "type": "cell-based", "details": "50 μM", "source_text": "LSALT decreases binding of metastatic cancer cells to human lung microvascular endothelial cells (HLMVEC) activated by TNFα and IL1β."}, "[2]": {"tested_on": "metastatic cancer cells", "test": "Metastasis model in mice", "type": "in vivo", "details": "peptide 1 mM"}, "[3]": {"tested_on": "serum cytokines", "test": "Plasma cytokine levels after LPS, Luminex Cytokine Arrays", "type": "in vivo, mouse", "details": "SCID mice, LPS 0.5 mg/kg i.p., 4 hours", "description": "6-8 weeks old SCID mice were given an intraperitoneal injection of LPS (0.5 mg/kg) 5 minutes prior to intravenous injection of LSALT peptide or a control peptide. 4 hours following injection of LPS, blood was collected by cardiac puncture and changes in plasma cytokine levels were assessed using Luminex Cytokine Arrays. Bar graphs show the levels of different inflammatory mediators released in the plasma in the presence or absence of LSALT peptide and control peptide.\n6-8 weeks old SCID mice were given an intraperitoneal injection of LPS (0.5 mg/kg) 5 minutes prior to intravenous injection of LSALT peptide or a control peptide. 4 hours following injection of LPS, blood was collected by cardiac puncture and changes in plasma cytokine levels were assessed using Luminex Cytokine Arrays. Bar graphs show the level of the anti-inflammatory cytokine IL-10 released in the plasma in LSALT peptide or control peptide in two independent experiments."}, "[4]": {"target": "T1, DPEP1 (Homo sapiens, UniProt P16444)", "T1 sequence (P16444 17-385)": "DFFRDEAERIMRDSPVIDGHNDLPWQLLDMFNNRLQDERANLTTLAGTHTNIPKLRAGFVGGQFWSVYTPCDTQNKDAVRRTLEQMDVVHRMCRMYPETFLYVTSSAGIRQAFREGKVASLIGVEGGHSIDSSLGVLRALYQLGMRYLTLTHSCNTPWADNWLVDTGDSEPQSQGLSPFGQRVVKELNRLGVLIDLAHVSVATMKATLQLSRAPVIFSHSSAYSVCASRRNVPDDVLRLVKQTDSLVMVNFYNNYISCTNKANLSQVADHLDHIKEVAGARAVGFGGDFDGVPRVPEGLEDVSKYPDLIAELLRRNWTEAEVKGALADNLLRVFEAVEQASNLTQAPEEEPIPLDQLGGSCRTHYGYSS", "test": "Biotin transfer, neutravidin precipitation and DPEP1 western blot", "type": "binding", "set-up": "expressed in transfected cells; host or cells: Cos-1", "details": "10 mg/ml biotin transfer peptide, UV activation", "description": "Cos-1 cells were transiently transfected with either 3 or 5 μg of membrane dipeptidase (DPEP-1) cDNA corresponding to the rat (Shown in FIG. 5A), human (Shown in FIG. 5B), or canine (Shown in FIG. 5E) DPEP-1 gene using Lipofectamine 2000 (Invitrogen) reagent in OptiMEM medium. 24 hours after transfection, DPEP-1 expresisng cells were re-seeded on collagen coated (neutralized) wells in 24 well plates and allowed to grow for 24 hours at 37° C. […] Cells were blocked with FBS/NBSA/Tween in PBS for 30 minutes on ice. Cells were then washed with PBS and incubated with Alexa-488 (green) conjugated LSALT, GFE-1, control peptide or DPEP-1 antibody ( 1/100) (Sigma) on ice for 30 minutes. […] After incubation, cells were washed with PBS and treated with 10 mg/ml biotin transfer peptide (LSALT, GFE-1 or Control Peptide (KGAL)] for 10 minutes. Cells were then washed with PBS and biotin transfer was enabled by UV activation of the aryl azide groups for 15 minutes at 363 nm. Residual fluid was removed and monolayers were lysed either with octyl-glucoside/RIPA or 8M urea. Isolated supernatants were rotated with 50 μl of neutr-avidin agarose beads at 4° C. for 24 hours. Beads were washed with corresponding buffers, boiled in Laemmli buffer and analyzed by western blot using a DPEP-1 specific antibody (Proteintech)."}, "[5]": {"target": "T2, human membrane dipeptidase (DPEP-1) (Homo sapiens, UniProt P16444)", "T2 construct": "expressed in transfected cells; host or cells: Cos-1", "T2 sequence (P16444 17-385)": "T1 sequence (P16444 17-385)", "test": "Membrane dipeptidase enzyme activity assay (Gly-D-Phe, fluorometric)", "type": "biochemical", "details": "lysates of transfected Cos1 cells, substrate Gly-D-Phe", "description": "24 hours after transfection, DPEP-1 expressing cells weer reseeded on 24 well collagen coated (neutralized) plates and allowed to grow for 24 hours at 37° C. […] Cells were blocked with FBS/NBSA/Tween in PBS for 30 minutes on ice. […] After incubation, cells were washed with PBS and stained with DAPI for 4 minutes on ice. Cells were again washed with PBS, fixed using 4% paraformaldehyde and immunofluoresence microscopy was performed to assess binding. Proteins from human DPEP-1 transfected cells were isolated after 48 hours using octyl-glucoside/RIPA in the absence of protease inhibitors. […] Proteins from transfected cells were isolated after 48 hours using octyl-glucoside/RIPA lysis buffer and western blot analysis was performed to assess DPEP-1 expression using DPEP-1 antibody (Sigma).\nThe fluorescence signal generated from the conversion of D-Phe to […] in the presence of D-aminoacidoxidase and peroxidase was measured using a fluorescence plate reader.\nProteins from DPEP-1 transfected cells were isolated after 48 hours using octyl-glucoside/RIPA lysis buffer and western blot analysis was performed to assess DPEP-1 expression using a DPEP-1 specific antibody (Proteintech) (FIG. 24B)."}}, "note": "Ends that are not written are not given here."}
{"substance": "H-LSALTPSPSWLKYKAL [LSALT]", "values": [{"measurement": "binding of murine melanoma cells (B16-F10) to activated HLMVEC", "setting": "[1]", "result": "decreased binding"}, {"measurement": "binding of murine sarcoma cells (Tao-1) to activated HLMVEC", "setting": "[1]", "result": "decreased binding"}, {"measurement": "tumor burden in livers (liver metastatic lesions)", "setting": "[2]; animals injected with 4T1 murine breast cancer cells", "result": "reduces tumor burden in livers of animals injected with metastatic cancer cells"}, {"measurement": "tumor burden in livers and lungs", "setting": "[2]; animals injected with metastatic cancer cells", "result": "reduces tumor burden in livers and lungs"}, {"measurement": "levels of serum cytokines in response to LPS", "setting": "[3]", "result": "attenuates the levels of a number of different serum cytokines"}, {"measurement": "plasma IL-10 in response to LPS", "setting": "[3]", "result": "increases the production of the anti-inflammatory mediator IL-10"}, {"measurement": "interaction with DPEP1 by biotin transfer", "setting": "[4]", "result": "able to interact with DPEP1"}, {"measurement": "inhibition of human DPEP1 enzymatic activity", "setting": "[5]", "result": "do not inhibit membrane dipeptidase enzyme activity"}]}
